The record followed here is ChEMBL document CHEMBL4477208, “Discovery and Rational Design of Pteridin-7(8H)-one-Based Inhibitors Targeting FMS-like Tyrosine Kinase 3 (FLT3) and Its Mutants” (J Med Chem, 2016).

The subject of experiment [1] is MV4-11. As to the kind of experiment: Cell cycle arrest in human MV4-11 cells assessed as accumulation at S phase at 1000 nM after 48 hrs by PI/RNase staining based FACS analysis (reference value: 16.50%). It counts as functional.
The subject of experiment [2] is MV4-11. In words: animal or person. The conditions noted are these: Mus musculus, MV4-11, po, read-out: TGI.
Description: Antitumor activity against human MV4-11 cells xenografted in nude BALB/c mouse assessed as tumor growth inhibition at 10 mg/kg, po qd for 14 days measured every 2 days
Experiment [3] has as its target Tyrosine-protein kinase JAK1 (Homo sapiens) (UniProt P23458). In words: Inhibition of human JAK1 expressed in mammalian or bacterial system assessed as remaining enzyme activity at 1 uM relative to untreated control.
In another experiment the test system is NCI-H1975. In words: Antiproliferative activity against human NCI-H1975 cells after 72 hrs by SRB assay. It counts as functional, cell-based. The conditions noted are these: NCI-H1975, 72 h.
Experiment [4] deals with Dual specificity mitogen-activated protein kinase kinase 5 (Homo sapiens) (UniProt Q13163). As to the kind of experiment: Inhibition of human MEK5 expressed in mammalian system assessed as remaining enzyme activity at 1 uM relative to untreated control.
Experiment [5] deals with MV4-11. As to the kind of experiment: Cell cycle arrest in human MV4-11 cells assessed as accumulation at S phase at 100 nM after 48 hrs by PI/RNase staining based FACS analysis (reference value: 16.50%). It counts as functional.
Experiment [6] deals with Receptor-type tyrosine-protein kinase FLT3 (Homo sapiens, UniProt P36888, F691L/ITD). As to the kind of experiment: Binding affinity to human partial length FLT3 ITD/F691L mutant expressed in mammalian expression system after 1 hr.
For the next experiment, the system named is A549. As to the kind of experiment: Antiproliferative activity against human A549 cells after 72 hrs by SRB assay. In kind it is functional, cell-based. The conditions noted are these: A549, 72 h.
The target of experiment [7] is T1, Receptor-type tyrosine-protein kinase FLT3 (Homo sapiens, UniProt P36888).
T1 sequence (P36888 whole entry): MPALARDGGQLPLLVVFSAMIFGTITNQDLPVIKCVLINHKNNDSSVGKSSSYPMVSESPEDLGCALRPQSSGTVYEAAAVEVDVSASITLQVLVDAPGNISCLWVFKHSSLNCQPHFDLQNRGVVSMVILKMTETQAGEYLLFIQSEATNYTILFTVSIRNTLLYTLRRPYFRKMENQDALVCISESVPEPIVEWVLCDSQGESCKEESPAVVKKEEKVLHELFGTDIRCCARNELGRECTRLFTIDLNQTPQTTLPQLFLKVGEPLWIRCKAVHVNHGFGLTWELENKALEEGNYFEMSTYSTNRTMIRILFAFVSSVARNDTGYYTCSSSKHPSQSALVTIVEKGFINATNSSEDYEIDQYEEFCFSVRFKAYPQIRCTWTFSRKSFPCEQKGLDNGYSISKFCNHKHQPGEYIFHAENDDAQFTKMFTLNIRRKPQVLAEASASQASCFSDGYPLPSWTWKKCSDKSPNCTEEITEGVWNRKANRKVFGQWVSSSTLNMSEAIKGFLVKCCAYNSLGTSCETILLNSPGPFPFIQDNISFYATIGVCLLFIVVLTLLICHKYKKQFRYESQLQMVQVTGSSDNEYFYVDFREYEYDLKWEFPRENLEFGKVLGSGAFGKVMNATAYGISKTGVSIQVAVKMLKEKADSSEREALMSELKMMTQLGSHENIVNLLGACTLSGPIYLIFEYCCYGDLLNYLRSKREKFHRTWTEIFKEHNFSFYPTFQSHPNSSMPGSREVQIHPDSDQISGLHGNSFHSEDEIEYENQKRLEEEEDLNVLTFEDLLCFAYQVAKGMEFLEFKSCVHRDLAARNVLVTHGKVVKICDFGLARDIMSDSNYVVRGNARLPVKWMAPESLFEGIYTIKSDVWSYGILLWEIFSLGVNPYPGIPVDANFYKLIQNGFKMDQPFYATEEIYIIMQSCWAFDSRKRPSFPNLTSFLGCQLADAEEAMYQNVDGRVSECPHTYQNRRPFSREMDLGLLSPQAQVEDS
As to the kind of experiment: Binding affinity to auto-inhibited human partial length wild type FLT3 (564 to 969 residues) expressed in mammalian expression system after 1 hr.

In experiment [8] the test system is MV4-11. As to the kind of experiment: Cell cycle arrest in human MV4-11 cells assessed as accumulation at G2 phase at 1 nM after 48 hrs by PI/RNase staining based FACS analysis (reference value: 13.95%). It counts as functional.
In another experiment the test system is SH-SY5Y. As to the kind of experiment: Antiproliferative activity against human SH-SY5Y cells after 72 hrs by SRB assay. It counts as functional, cell-based.
In experiment [9] the test system is MV4-11. As to the kind of experiment: Induction of apoptosis in human MV4-11 cells assessed as viable cells at 1000 nM after 48 hrs by annexin V/propidium iodide staining based FACS analysis (reference value: 90.60%). The conditions noted are these: MV4-11, 48 h, read-out: Activity. It counts as functional.
Experiment [10] deals with MV4-11. As to the kind of experiment: Induction of apoptosis in human MV4-11 cells assessed as late apoptotic cells at 1000 nM after 48 hrs by annexin V/propidium iodide staining based FACS analysis (reference value: 3.01%). It counts as functional.

Each structure is given as a SMILES string.

Chain of Tyrosine-protein kinase JAK1 (Homo sapiens) (P23458 whole entry): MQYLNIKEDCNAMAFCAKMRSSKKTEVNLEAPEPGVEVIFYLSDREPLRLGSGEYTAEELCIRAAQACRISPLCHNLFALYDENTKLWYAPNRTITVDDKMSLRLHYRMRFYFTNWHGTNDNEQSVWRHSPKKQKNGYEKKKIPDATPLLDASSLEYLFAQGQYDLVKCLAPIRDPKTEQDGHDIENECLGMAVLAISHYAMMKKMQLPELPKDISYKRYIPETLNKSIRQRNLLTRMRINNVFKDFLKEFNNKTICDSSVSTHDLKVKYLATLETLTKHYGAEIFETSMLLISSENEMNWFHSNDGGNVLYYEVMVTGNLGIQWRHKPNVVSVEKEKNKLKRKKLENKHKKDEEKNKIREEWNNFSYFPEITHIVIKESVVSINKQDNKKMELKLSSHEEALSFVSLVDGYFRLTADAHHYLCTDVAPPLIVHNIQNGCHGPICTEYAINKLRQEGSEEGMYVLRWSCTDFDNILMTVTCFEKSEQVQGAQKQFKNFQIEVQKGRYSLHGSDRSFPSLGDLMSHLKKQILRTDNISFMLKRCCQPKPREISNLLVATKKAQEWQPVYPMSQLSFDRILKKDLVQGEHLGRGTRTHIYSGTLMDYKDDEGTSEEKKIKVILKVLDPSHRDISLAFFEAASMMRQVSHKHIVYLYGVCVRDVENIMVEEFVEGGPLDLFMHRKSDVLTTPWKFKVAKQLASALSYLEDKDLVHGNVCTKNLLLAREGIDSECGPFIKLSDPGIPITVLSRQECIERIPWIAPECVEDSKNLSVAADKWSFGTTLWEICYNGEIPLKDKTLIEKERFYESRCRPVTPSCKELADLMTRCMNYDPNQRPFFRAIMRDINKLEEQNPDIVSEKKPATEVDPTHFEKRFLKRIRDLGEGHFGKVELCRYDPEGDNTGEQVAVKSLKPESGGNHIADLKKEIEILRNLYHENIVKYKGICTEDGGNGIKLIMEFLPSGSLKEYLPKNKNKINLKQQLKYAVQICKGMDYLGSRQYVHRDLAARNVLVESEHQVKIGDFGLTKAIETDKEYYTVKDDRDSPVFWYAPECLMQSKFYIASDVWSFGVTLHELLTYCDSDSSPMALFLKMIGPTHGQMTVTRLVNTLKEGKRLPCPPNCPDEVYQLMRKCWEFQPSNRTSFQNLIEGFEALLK
Chain of Dual specificity mitogen-activated protein kinase kinase 5 (Homo sapiens) (Q13163 whole entry): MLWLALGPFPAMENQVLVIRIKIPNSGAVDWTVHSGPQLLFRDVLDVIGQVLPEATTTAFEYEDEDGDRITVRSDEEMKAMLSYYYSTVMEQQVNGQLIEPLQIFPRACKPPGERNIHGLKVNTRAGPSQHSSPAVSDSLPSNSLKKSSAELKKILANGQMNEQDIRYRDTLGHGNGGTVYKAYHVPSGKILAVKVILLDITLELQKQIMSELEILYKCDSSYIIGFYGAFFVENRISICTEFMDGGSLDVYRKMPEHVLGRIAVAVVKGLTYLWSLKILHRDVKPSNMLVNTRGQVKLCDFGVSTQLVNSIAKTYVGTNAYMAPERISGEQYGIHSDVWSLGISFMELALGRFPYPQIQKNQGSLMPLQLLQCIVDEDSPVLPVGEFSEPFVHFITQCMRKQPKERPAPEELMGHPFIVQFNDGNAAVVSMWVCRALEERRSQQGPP

For the molecule `Cc1cc(Nc2ncc3ncc(=O)n(-c4ccc(N)cc4)c3n2)ccc1N1CCN(C)CC1`, the Activity with MV4-11 [1] is 3.07%; in [3], under 1%; in experiment [4] it was under 1%; in the experiment on MV4-11 [5] it was 2.06%; in the experiment on MV4-11 [8], 12.59%; in the experiment with MV4-11 [10], 34.3%. In addition, the inhibition in vivo at 10 mg/kg in the experiment with MV4-11 [2] is 28%. In addition, the IC50 in the experiment on NCI-H1975 was 4.46 µM; in the experiment with A549, over 10 µM; in the experiment with SH-SY5Y, 5.57 µM. Besides, the results for the Kd in [6] and in [7] were 0.0057 µM and 0.079 µM, respectively. For the same molecule, the viability at 1 µM with MV4-11 [9] turned out to be 27.3%.
